*1 amine or outer side, *2 acyl side, *3 side chain or, on linkers, in order; H or OH if unused. Where no end group is shown, it is not given here. K(Palm) = CCCCCCCCCCCCCCCC(=O)NCCCC[C@H](N[*:1])C(=O)[*:2]
How the values were obtained:
SHR rats [1] = experiment: Systolic blood pressure in conscious SHR rats (tail-cuff) after i.p. intermedin peptides; assay type: in vivo, rat; conditions: for duration of hypotensive effect in vivo: i.p.
Excerpt: FIG. 1A-1C are examples of blood pressure measurements in SHR rats after treatment with a long-acting intermedin peptide (Palmitic acid-modified IMD, IMD-PA), A. 30 nmoles/kg BW; B/C, 100 nmoles/kg BW.
FIG. 2A-2B are examples of blood pressure measurements in SHR rates after injection with a wild type intermedin peptide (IMD, 100 nmoles/kg BW). The hypotensive effects of the IMD-PA peptide lasted over five hours in vivo, whereas that of the unmodified IMD peptide lasted less than 1 hr.
(§1) The intermedin peptides were dissolved in saline solution with 10-20% DMSO at 10 micromoles/liter, Before injection, aliquots of peptides were dissolved in PBS to a injection final volume of 100 ul. Blood pressure measurements were made in conscious SHR rats (9-16 weeks of age) pre-adapted to the measurement procedure. Indirect systolic pressure was determined by a programmable non-invasive blood pressure system using the tail-cuff method (Kent Scientific Corporation). Following attachment of the pressure transducer, rats were left undisturbed for 10 min before base-line measurements that spanned a 15-20 minute interval. Following base-line measurements, rats were injected intraperitoneally with varying doses of peptides, or saline with 10% DMSO. Blood pressure and heart rate were monitored for 20-40 min at 30-s intervals. Changes in blood pressure were calculated as the average of measurements performed within a given time interval.
The hypotensive effects of this peptide lasted over five hours in vivo, whereas that of the unmodified IMD peptide lasted less than 1 hr. The results from control animals injected with PBS is depicted in FIG. 3, and from the unmodified peptide in FIG. 2.

SHR rats [2] = conditions: unmodified ADM peptide; stated as what it normally lasts, no figure; cited from earlier work
SHR rats [3] = experiment: Systolic blood pressure in conscious SHR rats (tail-cuff) after i.p. adrenomedullin peptides; assay type: in vivo, rat
Method: FIG. 5A-5C show examples of systolic pressure measurement of SHR rats after an injection of a long-acting adrenomedullin peptide (Palmitic acid-conjugated ADM, ADM-PA, 100 nmoles/kg BM. The hypotensive effect of this peptide lasted over five hours in vivo. By contrast, the hypotensive effect of unmodified ADM peptide normally lasts less than 1.5 hr.
as §1, with “Biological activity of adrenomedullin analog in vivo. The” for “The”, “adrenomedullin” for “intermedin”, “200 μl.” for “100 ul.”, “10-15” for “15-20”, “20-s” for “30-s”
(see Roh et al. Mol Endocrinol. 2005 November; 19(11):2824-38).

[4] = target: T1, adrenomedullin receptor 1 (CLR/RAMP2) (Homo sapiens, UniProt O60895+Q16602); experiment: Stimulatory effect in 293T cells expressing recombinant adrenomedullin receptor 1; assay type: cell-based; conditions: 293T cells expressing CLR/RAMP2
T1 construct: expressed in transfected cells; host or cells: 293T cells
T1 sequence (Q16602 23-461): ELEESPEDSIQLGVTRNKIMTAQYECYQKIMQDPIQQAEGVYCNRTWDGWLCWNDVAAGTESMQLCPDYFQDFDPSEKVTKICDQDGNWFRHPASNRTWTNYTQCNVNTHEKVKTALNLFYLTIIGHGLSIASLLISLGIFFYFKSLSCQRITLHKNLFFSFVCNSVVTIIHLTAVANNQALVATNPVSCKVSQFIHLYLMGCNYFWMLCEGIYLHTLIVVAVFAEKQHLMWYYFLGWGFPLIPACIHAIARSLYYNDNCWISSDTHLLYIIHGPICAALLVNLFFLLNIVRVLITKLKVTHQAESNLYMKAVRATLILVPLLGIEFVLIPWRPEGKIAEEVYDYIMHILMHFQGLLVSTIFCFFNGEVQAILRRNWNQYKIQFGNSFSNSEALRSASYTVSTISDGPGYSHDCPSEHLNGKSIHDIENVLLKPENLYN
T1 sequence (O60895 43-175): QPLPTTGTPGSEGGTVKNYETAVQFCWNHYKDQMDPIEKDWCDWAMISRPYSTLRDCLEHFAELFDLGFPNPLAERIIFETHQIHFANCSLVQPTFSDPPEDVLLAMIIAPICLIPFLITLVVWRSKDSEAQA
Excerpt: (§2) Biological activity of adrenomedullin in vitro.

[5] = target: T2, adrenomedullin receptor 2 (CLR/RAMP3) (Homo sapiens, UniProt O60896+Q16602); experiment: Stimulatory effect in 293T cells expressing recombinant adrenomedullin receptor 2; assay type: cell-based; conditions: 293T cells expressing CLR/RAMP3
T2 construct: expressed in transfected cells; host or cells: 293T cells
T2 sequence (Q16602 23-461): as the sequence (Q16602 23-461) above
T2 sequence (O60896 24-148): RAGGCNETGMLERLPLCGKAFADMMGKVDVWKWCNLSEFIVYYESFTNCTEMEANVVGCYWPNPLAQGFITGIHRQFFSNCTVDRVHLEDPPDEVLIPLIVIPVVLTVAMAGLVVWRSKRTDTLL
Excerpt: as §2

[6] = Immunoreactive ADM retained in vivo after i.p. injection, by ELISA

Substance: IMD: wild type, unmodified intermedin peptide (VGCVLGTCQVQNLSHRLWQLMGPAGRQDSAPVDPSSPHSY; ends and bridges not checked; cysteine pairing not given here) [reference compound]
- duration of hypotensive effect in vivo (SHR rats [1]; unmodified IMD 100 nmoles/kg BW): less than 1 hr

Substance: K(mod)GCVLGTCQVQNLSHRLWQLMGPAGRQDSAPVDPSSPHSY ({K(Palm)}-GCVLGTCQVQNLSHRLWQLMGPAGRQDSAPVDPSSPHSY; ends and bridges not checked) [IMD-PA, long-acting intermedin peptide, palmitic acid-modified via an incorporated Lys(PAL) residue]
- change in systolic blood pressure over time (SHR rats [1]; i.p. injection): significant and long lasting drop
- duration of hypotensive effect in vivo (SHR rats [1]; IMD-PA 30 or 100 nmoles/kg BW): over five

Substance: ADM: wild type, unmodified adrenomedullin peptide (YRQSMNNFQGLRSFGCRFGTCTVQKLAHQIYQFTDKDKDNVAPRSKISPQGY; ends and bridges not checked; cysteine pairing not given here)
- duration of hypotensive effect (normally) (SHR rats [2]): less than 1.5 hr

Substance: K(mod)GCRFGTCTVQKLAHQIYQFTDKDKDNVAPRSKISPQGY [ADM-PA]
- change in systolic blood pressure over time (SHR rats [3]; SHR rats, 100 nmoles/kg body weight): significant and long lasting drop
- duration of hypotensive effect in vivo (SHR rats [3]; SHR rats, ADM-PA 100 nmoles/kg): over five
- effective life in vivo compared with wild type ADM (SHR rats [3]; in vivo): significantly longer effective life
- stimulatory effect in vitro compared with wild type ADM [4]: lower than that of the wild type ADM
- stimulatory effect in vitro compared with wild type ADM [5]: lower than that of the wild type ADM
- level of immunoreactive peptide retained in vivo compared with ADM ([6]; 12 hr after i.p. injection): significantly higher
- half-life compared with ADM ([6]; measurement of immunoreactive ADM using ELISA): long half-life as compared to ADM
